Test results taken from patent US4312867A, “Antibacterial compounds, processes for their preparation and compositions containing them” (Beecham Group Limited, priority 1979, dated 1982).
Values after ≈ are worked out from the molar mass of the structure shown.

Tested on: E. coli E1
Assay: MIC veterinary bacteria (Table 2), serial dilution in agar
Type: cell-based
Conditions: Escherichia coli, diagnostic sensitivity test agar
With `C/C(=C\C(=O)OCCCCCCCCS(N)(=O)=O)CC1OCC(CC2OC2C(C)C(C)O)C(O)C1O` (stereo not shown) [Example 3, 8-Sulphamoyloctyl monate A] the MIC was greater than 80 µg/mL.

Tested on: Strep pneumoniae CN33
Assay: MIC human bacteria (Table 1), serial dilution in nutrient agar
Type: cell-based
Conditions: nutrient agar with 5% chocolated horse blood
Molecule `C/C(=C\C(=O)OCCCCCCCCS(N)(=O)=O)CC1OCC(CC2OC2C(C)C(C)O)C(O)C1O` (stereo not shown) [Example 3, 8-Sulphamoyloctyl monate A] has an MIC of 0.5 µg/mL (≈ 0.933 µM).

Tested on: Corynebacterium xerosis 9755
Assay: as above
Type: cell-based
Conditions: nutrient agar with 5% chocolated horse blood, read-out: MIC
`C/C(=C\C(=O)OCCCCCCCCS(N)(=O)=O)CC1OCC(CC2OC2C(C)C(C)O)C(O)C1O` (stereo not shown) [Example 3, 8-Sulphamoyloctyl monate A] showed an MIC greater than 100 µg/mL.

Tested on: Bord bronchiseptica B08
Assay: MIC veterinary bacteria (Table 2), serial dilution in agar
Type: cell-based
Conditions: diagnostic sensitivity test agar
For `C/C(=C\C(=O)OCCCCCCCCS(N)(=O)=O)CC1OCC(CC2OC2C(C)C(C)O)C(O)C1O` (stereo not shown) [Example 3, 8-Sulphamoyloctyl monate A], the MIC was 80 µg/mL (≈ 149 µM).

Tested on: not listed separately
Assay: Serum binding by ultrafiltration of porcine serum
Type: in vitro ADME
Conditions: pig, 8 mcg/ml, microbiological assay, read-out: % bound to pig serum (converted)
Protocol: Serum binding was assessed by ultrafiltration of porcine serum containing compounds at 8 mcg/ml, and through an Amicon CF50A ultrafiltration cone. Separation of ultrafiltrate was achieved by centrifugation. Unbound concentrations of compound were measured in the ultrafiltrate by microbiological assay (B. subtilis ATCC 6633) against standards prepared in saline.
With `C/C(=C\C(=O)OCCCCCCCCS(N)(=O)=O)CC1OCC(CC2OC2C(C)C(C)O)C(O)C1O` (stereo not shown) [Example 3, 8-Sulphamoyloctyl monate A] the fraction unbound was 0.035.

Tested on: Neisseria catarrhalis 1502
Assay: MIC human bacteria (Table 1), serial dilution in nutrient agar
Type: cell-based
Conditions: nutrient agar with 5% chocolated horse blood
For `C/C(=C\C(=O)OCCCCCCCCS(N)(=O)=O)CC1OCC(CC2OC2C(C)C(C)O)C(O)C1O` (stereo not shown) [Example 3, 8-Sulphamoyloctyl monate A], the MIC was 1 µg/mL (≈ 1.87 µM).

Tested on: K. aerogenes A
Assay: as above
Type: cell-based
Conditions: Klebsiella aerogenes, nutrient agar with 5% chocolated horse blood
Molecule `C/C(=C\C(=O)OCCCCCCCCS(N)(=O)=O)CC1OCC(CC2OC2C(C)C(C)O)C(O)C1O` (stereo not shown) [Example 3, 8-Sulphamoyloctyl monate A] has an MIC greater than 100 µg/mL.

Tested on: Past multocida PA1
Assay: MIC veterinary bacteria (Table 2), serial dilution in agar
Type: cell-based
Conditions: diagnostic sensitivity test agar
`C/C(=C\C(=O)OCCCCCCCCS(N)(=O)=O)CC1OCC(CC2OC2C(C)C(C)O)C(O)C1O` (stereo not shown) [Example 3, 8-Sulphamoyloctyl monate A] showed an MIC of 1.25 µg/mL (≈ 2.33 µM).

Tested on: P. mirabilis 889
Assay: MIC human bacteria (Table 1), serial dilution in nutrient agar
Type: cell-based
Conditions: Proteus mirabilis; P. mirabilis 889; nutrient agar with 5% chocolated horse blood; read-out: MIC
With `C/C(=C\C(=O)OCCCCCCCCS(N)(=O)=O)CC1OCC(CC2OC2C(C)C(C)O)C(O)C1O` (stereo not shown) [Example 3, 8-Sulphamoyloctyl monate A] the MIC was greater than 100 µg/mL.

Tested on: Strep agalactiae SPA1
Assay: MIC veterinary bacteria (Table 2), serial dilution in agar
Type: cell-based
Conditions: diagnostic sensitivity test agar
Work on `C/C(=C\C(=O)OCCCCCCCCS(N)(=O)=O)CC1OCC(CC2OC2C(C)C(C)O)C(O)C1O` (stereo not shown) [Example 3, 8-Sulphamoyloctyl monate A] yielded an MIC of 2.5 µg/mL (≈ 4.67 µM).

Tested on: E. coli NCTC 10418
Assay: as above
Type: cell-based
Conditions: Escherichia coli, NCTC10418; E. coli NCTC 10418; diagnostic sensitivity test agar; read-out: MIC
Work on `C/C(=C\C(=O)OCCCCCCCCS(N)(=O)=O)CC1OCC(CC2OC2C(C)C(C)O)C(O)C1O` (stereo not shown) [Example 3, 8-Sulphamoyloctyl monate A] yielded an MIC greater than 80 µg/mL.

Tested on: Past multocida PA2
Assay: as above
Type: cell-based
Conditions: diagnostic sensitivity test agar
In the case of `C/C(=C\C(=O)OCCCCCCCCS(N)(=O)=O)CC1OCC(CC2OC2C(C)C(C)O)C(O)C1O` (stereo not shown) [Example 3, 8-Sulphamoyloctyl monate A], the MIC is reported as 0.156 µg/mL (≈ 0.291 µM).

Tested on: Strep pyogenes B 2788
Assay: MIC human bacteria (Table 1), serial dilution in nutrient agar
Type: cell-based
Conditions: nutrient agar with 5% chocolated horse blood
`C/C(=C\C(=O)OCCCCCCCCS(N)(=O)=O)CC1OCC(CC2OC2C(C)C(C)O)C(O)C1O` (stereo not shown) [Example 3, 8-Sulphamoyloctyl monate A] gave an MIC of 1 µg/mL (≈ 1.87 µM).

Tested on: Staph aureus 152 (pen. sens)
Assay: MIC veterinary bacteria (Table 2), serial dilution in agar
Type: cell-based
Conditions: Staphylococcus aureus, diagnostic sensitivity test agar
`C/C(=C\C(=O)OCCCCCCCCS(N)(=O)=O)CC1OCC(CC2OC2C(C)C(C)O)C(O)C1O` (stereo not shown) [Example 3, 8-Sulphamoyloctyl monate A] gave an MIC of 0.625 µg/mL (≈ 1.17 µM).

Tested on: Staph aureus Oxford
Assay: as above
Type: cell-based
Conditions: Staphylococcus aureus; Staph aureus Oxford; diagnostic sensitivity test agar; read-out: MIC
For `C/C(=C\C(=O)OCCCCCCCCS(N)(=O)=O)CC1OCC(CC2OC2C(C)C(C)O)C(O)C1O` (stereo not shown) [Example 3, 8-Sulphamoyloctyl monate A], the MIC was 0.625 µg/mL (≈ 1.17 µM).

Tested on: S. dublin S7
Assay: as above
Type: cell-based
Conditions: Salmonella enterica, diagnostic sensitivity test agar
`C/C(=C\C(=O)OCCCCCCCCS(N)(=O)=O)CC1OCC(CC2OC2C(C)C(C)O)C(O)C1O` (stereo not shown) [Example 3, 8-Sulphamoyloctyl monate A] showed an MIC greater than 80 µg/mL.

Tested on: Strep pyogenes A 64/848
Assay: MIC human bacteria (Table 1), serial dilution in nutrient agar
Type: cell-based
Conditions: nutrient agar with 5% chocolated horse blood
With `C/C(=C\C(=O)OCCCCCCCCS(N)(=O)=O)CC1OCC(CC2OC2C(C)C(C)O)C(O)C1O` (stereo not shown) [Example 3, 8-Sulphamoyloctyl monate A] the MIC was 0.5 µg/mL (≈ 0.933 µM).

Tested on: Strep uberis SPU1
Assay: MIC veterinary bacteria (Table 2), serial dilution in agar
Type: cell-based
Conditions: diagnostic sensitivity test agar
Work on `C/C(=C\C(=O)OCCCCCCCCS(N)(=O)=O)CC1OCC(CC2OC2C(C)C(C)O)C(O)C1O` (stereo not shown) [Example 3, 8-Sulphamoyloctyl monate A] yielded an MIC of 1.25 µg/mL (≈ 2.33 µM).

Tested on: Strep dysgalaciae SPD1
Assay: as above
Type: cell-based
Conditions: diagnostic sensitivity test agar
For `C/C(=C\C(=O)OCCCCCCCCS(N)(=O)=O)CC1OCC(CC2OC2C(C)C(C)O)C(O)C1O` (stereo not shown) [Example 3, 8-Sulphamoyloctyl monate A], the MIC was 2.5 µg/mL (≈ 4.67 µM).
